How the values were obtained:
[1] = Fluorescence (emission) measurements; type: physicochemical;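 note: fluorescence emission spectra recorded on a spectrofluorometer, with each compound excited at its own absorption maximum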
Description: The fluorescence spectrum of each derivative (150 μL) was measured on a Photon Technology International (PTI) QuantaMaster™ 40 fluorescence spectrometer by excitation at the maximum absorption wavelength for each compound.
The fluorescence spectrum of each derivative (150 μL) was measured on a Photon Technology International (PTJ) QuantaMaster™ 40 fluorescence spectrometer by excitation at the maximum absorption wavelength for each compound.

[2] = Molar absorptivity determination; type: physicochemical;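 note: molar absorptivity derived from UV-Vis absorbance spectra recorded for each derivative on a spectrometer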
Description: The absorbance spectrum of each derivative (150 μL) was measured on a Thermo Scientific Genesys 150 UV-Vis spectrometer, using 50:50 ACN/PBS as a blank.
Molar absorptivity determination. […] The absorbance spectrum of each derivative (150 μL) was measured on a Thermo Scientific Genesys 150 UV-Vis spectrometer, using 50:50 ACN/PBS as a blank.

[3] = Fluorescent quantum yield (QY) measurements; type: physicochemical; conditions: for Fluorescence QY: ACN/PBS buffer (1:1 v/v); for Fluorescence quantum yield: in ACN
Description: For each QY measurement, the incident excitation light spectrum was collected with 1 mL of solvent. […] Using the JASCO Quantum Yield Software, the dye QY was calculated by dividing the dye fluorescence intensity by the difference in incident light intensity in the presence and absence of dye. The minimum excitation wavelength for a full excitation incident spectrum using this setup is 360 nm.
Fluorescent quantum yield (QY) measurements. For each QY measurement, the incident excitation light spectrum was collected with 1 mL of solvent. After measuring the incident light intensity, dye (3 and 5a-5k) was added to the solvent from a concentrated stock solution to a final concentration of […] and the new spectrum (fluorescence intensity and new incident light intensity) was collected. Using the JASCO Quantum Yield Software, the dye QY was calculated by dividing the dye fluorescence intensity by the difference in incident light intensity in the presence and absence of dye. The minimum excitation wavelength for a full excitation incident spectrum using this setup is 360 nm.

[4] = Absorbance measurements (UV-Vis); conditions: for Absorbance Wavelength: ACN:PBS buffer (50:50 v/v); for Abs. λabs: 25 μM
Description: Samples were individually diluted to the final concentration of 25 μM (500 μL) using 50:50 acetonitrile in phosphate buffered saline (ACN/PBS). The absorbance spectrum of each derivative (150 μL) was measured on a Thermo Scientific Genesys 150 UV-Vis spectrometer, using 50:50 ACN/PBS as a blank.

[5] = Fluorescence lifetime measurements (TCSPC); type: physicochemical; conditions: for Lifetime: ACN/PBS buffer (50:50 v/v), excitation 340 nm
Description: Time correlated single photon counting (TCSPC) measurements of fluorescence lifetime decays for 100 μM solutions of dyes (6, 7c, 7e, 7f, and 7g) in ACN/PBS buffer (50:50 v/v) were collected with the PTI Quantamaster™ 40 using a pulsed LED with a maximum emission at 340 nm. Fluorescence emission was collected at the indicated wavelength for each dye with 20 nm slit widths. The instrument response function (IRF) was collected under identical conditions. Data analysis was performed with FluoFit software (PicoQuant GmbH; Berlin, Germany) using an exponential decay model.
Fluorescence lifetime measurements. Time correlated single photon counting (TCSPC) measurements of fluorescence lifetime decays for 100 μM solutions of dyes (3 and 5c-f) in ACN/PBS buffer (50:50 v/v) were collected with the PTI Quantamaster™ 40 using a pulsed LED with a maximum emission at 340 nm. Fluorescence emission was collected at the indicated wavelength for each dye with 20 nm slit widths. The instrument response function ([…]) was collected under identical conditions. Data analysis was performed with FluoFit software (PicoQuant GmbH; Berlin, Germany) using an exponential decay model. […] FIG. 64D Fluorescence spectra of 5i-5k. […] Fluorescence spectra were measured at their maximum absorption wavelength. FIGS. 66A-66K show representative QY acquisitions of 3 and 5a-f, 5h-k in ACN/PBS buffer (50:50). All had consistent excitation (360 nm) and spectral collection (350-800 nm) parameters. Final concentration of the probe is 500 μM. Black line indicates incident light and blue line indicates sample spectrum. […] All had consistent excitation (360 nm, slit width 10 nm) and spectral collection (350-800 nm) parameters. Final concentration of the probe is 500 µM. Black line indicates incident light and blue line indicates sample spectrum. FIG. 68: Effect of pH on absorption and emission of 5h and 5j. […] For pH screening of 5h and 5j, PBS buffer solutions were prepared, then adjusted the pH 2, 4, and 7 by adding 6 M hydrochloric acid, pH 9 and 11 by adding 5 M sodium hydroxide. Emission spectra were measured by the excitation wavelength 354 nm for 5h and 385 nm for 5j. […] Lifetime measurements with exponential fits shown at left and residuals after fitting shown at right.

[6] = 25 μM in ACN/PBS buffer (1:1 v/v), pH 7.4
[7] = ACN/PBS buffer (1:1 v/v), pH 7.4
[8] = in ACN, at maximum absorption wavelength

Cc1c(C)n2c(/C=C/c3ccc(NC(=O)OC(C)(C)C)cc3)c(C)c(=O)n2c1=O [Compound 7i, tert-butyl (E)-(4-(2-(2,5,6-trimethyl-1,7-dioxo-1H,7H-pyrazolo[1,2-a]pyrazol-3-yl)vinyl)phenyl)carbamate]
Emission λmax [1, 6]: 505 nm | maximum emission wavelength (λem) ([1]; 50:50 ACN/PBS, excitation at λabs): 583 nm | Stokes shift ([1]; ACN/PBS buffer (1:1 v/v)): 149 nm | Stokes shift ([1]; in ACN): 142 nm | Molar Absorptivity (ε) [2, 7]: 34826 M⁻¹ cm⁻¹ | Molar Absorptivity (ε) [2, 8]: 37555 M⁻¹ cm⁻¹ | Fluorescence QY [3]: 3.4% | Fluorescence quantum yield [3]: 3.4% | Fluorescence quantum yield ([3]; Table S12): 3.4% | Absorbance λmax ([4]; 25 μM in ACN): 348 nm | Absorbance λmax [4, 6]: 356 nm | Absorbance Wavelength ([4]; Table 11): 354 nm

COc1ccc2nc(/C=C/c3c(C)c(=O)n4c(=O)c(C)c(C)n34)sc2c1 [Compound 8d, (E)-3-(2-(6-methoxybenzo[d]thiazol-2-yl)vinyl)-2,5,6-trimethyl-1H,7H-pyrazolo[1,2-a]pyrazole-1,7-dione]
Stokes shift ([1]; ACN only): 163 nm | Stokes shift ([1]; ACN:PBS (50:50 v/v)): 157 nm | ε ([2]; ACN only): 22961 M⁻¹ cm⁻¹ | ε ([2]; ACN:PBS (50:50 v/v)): 22575 M⁻¹ cm⁻¹ | Q.Y. ([3]; ACN only): 0.54% | Q.Y. ([3]; ACN:PBS (50:50 v/v)): 0.27% | Abs. λabs ([4]; ACN only): 367 nm | Abs. λabs ([4]; ACN:PBS (50:50 v/v)): 373 nm

Cc1c(C)n2c(/C=C/c3ccc(N=[N+]=[N-])cc3)c(C)c(=O)n2c1=O [Compound 7d, (E)-3-(4-azidostyryl)-2,5,6-trimethyl-1H,7H-pyrazolo[1,2-a]pyrazole-1,7-dione]
Emission λmax [1, 6]: 502 nm | Stokes shift ([1]; ACN/PBS buffer (1:1 v/v)): 152 nm | Stokes shift ([1]; in ACN): 101 nm | Molar Absorptivity (ε) [2, 7]: 27699 M⁻¹ cm⁻¹ | Molar Absorptivity (ε) [2, 8]: 36055 M⁻¹ cm⁻¹ | Fluorescence QY [3]: 1.3% | Fluorescence quantum yield [3]: 1.5% | Absorbance λmax ([4]; 25 μM in ACN): 339 nm | Absorbance λmax [4, 6]: 350 nm

Cc1c(C)n2c(/C=C/c3ccc([N+](=O)[O-])cc3)c(C)c(=O)n2c1=O [Compound 7a, (E)-2,3,6-trimethyl-5-(4-nitrostyryl)-1H,7H-pyrazolo[1,2-a]pyrazole-1,7-dione]
Emission λmax ([1]; 25 μM in ACN): 432 nm | Emission λmax [1, 6]: 468 nm | Emission λem ([1]; 25 μM in ACN, Table S12): 432 nm | Stokes shift ([1]; ACN/PBS buffer (1:1 v/v)): 133 nm | Stokes shift ([1]; in ACN): 100 nm | Molar Absorptivity (ε) [2, 7]: 36955 M⁻¹ cm⁻¹ | Molar Absorptivity (ε) [2, 8]: 37871 M⁻¹ cm⁻¹ | Fluorescence QY [3]: 0.1% | Fluorescence quantum yield [3]: 0.2% | fluorescence quantum yield (QY) ([3]; in ACN/PBS): essentially non-fluorescent | Fluorescence quantum yield ([3]; Table S12): 0.2% | Absorbance λmax ([4]; 25 μM in ACN): 332 nm | Absorbance λmax [4, 6]: 335 nm | λabs ([4]; ACN/PBS): 335 nm | Absorbance Wavelength ([4]; Table 11): 335 nm | Absorbance Wavelength ([4]; Table S14): 335 nm

Cc1c(C)n2c(/C=C/c3nc4ccc([N+](=O)[O-])cc4s3)c(C)c(=O)n2c1=O [Compound 8a, (E)-2,3,6-trimethyl-5-(2-(6-nitrobenzo[d]thiazol-2-yl)vinyl)-1H,7H-pyrazolo[1,2-a]pyrazole-1,7-dione]
Stokes shift ([1]; ACN only): 229 nm | Stokes shift ([1]; ACN:PBS (50:50 v/v)): 99 nm | Em. λem ([1]; ACN:PBS (50:50 v/v), 25 μM): 448 nm | ε ([2]; ACN only): 26667 M⁻¹ cm⁻¹ | ε ([2]; ACN:PBS (50:50 v/v)): 27587 M⁻¹ cm⁻¹ | Q.Y. ([3]; ACN only): 0.1% | Q.Y. ([3]; ACN:PBS (50:50 v/v)): 0.06% | Abs. λabs ([4]; ACN only): 346 nm | Abs. λabs ([4]; ACN:PBS (50:50 v/v)): 349 nm

COc1ccc(/C=C/c2c(C)c(=O)n3c(=O)c(C)c(C)n23)cc1 [Compound 7g, (E)-3-(4-methoxystyryl)-2,5,6-trimethyl-1H,7H-pyrazolo[1,2-a]pyrazole-1,7-dione]
Emission λmax [1, 6]: 504 nm | Stokes shift ([1]; ACN/PBS buffer (1:1 v/v)): 156 nm | Stokes shift ([1]; in ACN): 146 nm | Molar Absorptivity (ε) [2, 7]: 25659 M⁻¹ cm⁻¹ | Molar Absorptivity (ε) [2, 8]: 34554 M⁻¹ cm⁻¹ | Fluorescence QY [3]: 3.3% | Fluorescence quantum yield [3]: 3.5% | Fluorescence quantum yield ([3]; Table S12): 3.5% | Absorbance λmax ([4]; 25 μM in ACN): 342 nm | Absorbance λmax [4, 6]: 348 nm | Absorbance Wavelength ([4]; Table S14): 348 nm | Fluorescence Lifetime ([5]; ACN/PBS buffer (1:1 v/v)): 1.31 ns | Lifetime ([5]; Table 4): 1.31 ± 0.004 ns | Lifetime ([5]; Table S13): 1.31 ± 0.004 ns

Cc1c(C)n2c(/C=C/c3nc4ccc(O)cc4s3)c(C)c(=O)n2c1=O [Compound 8e, (E)-3-(2-(6-hydroxybenzo[d]thiazol-2-yl)vinyl)-2,5,6-trimethyl-1H,7H-pyrazolo[1,2-a]pyrazole-1,7-dione]
Stokes shift ([1]; ACN only): 162 nm | Stokes shift ([1]; ACN:PBS (50:50 v/v)): 159 nm | ε ([2]; ACN only): 21094 M⁻¹ cm⁻¹ | ε ([2]; ACN:PBS (50:50 v/v)): 20460 M⁻¹ cm⁻¹ | Q.Y. ([3]; ACN only): 0.52% | Q.Y. ([3]; ACN:PBS (50:50 v/v)): 0.26% | Abs. λabs ([4]; ACN only): 369 nm | Abs. λabs ([4]; ACN:PBS (50:50 v/v)): 375 nm

Cc1c(C)n2c(/C=C/c3nc4ccccc4s3)c(C)c(=O)n2c1=O [Compound 8c, (E)-3-(2-(benzo[d]thiazol-2-yl)vinyl)-2,5,6-trimethyl-1H,7H-pyrazolo[1,2-a]pyrazole-1,7-dione]
Stokes shift ([1]; ACN only): 195 nm | Stokes shift ([1]; ACN:PBS (50:50 v/v)): 192 nm | ε ([2]; ACN only): 29974 M⁻¹ cm⁻¹ | ε ([2]; ACN:PBS (50:50 v/v)): 29304 M⁻¹ cm⁻¹ | Q.Y. ([3]; ACN only): 0.4% | Q.Y. ([3]; ACN:PBS (50:50 v/v)): 0.16% | Abs. λabs ([4]; ACN only): 339 nm | Abs. λabs ([4]; ACN:PBS (50:50 v/v)): 344 nm

Cc1c(C)n2c(/C=C/c3nc4ccc(F)cc4s3)c(C)c(=O)n2c1=O [Compound 8b, (E)-3-(2-(6-fluorobenzo[d]thiazol-2-yl)vinyl)-2,5,6-trimethyl-1H,7H-pyrazolo[1,2-a]pyrazole-1,7-dione]
Stokes shift ([1]; ACN only): 192 nm | Stokes shift ([1]; ACN:PBS (50:50 v/v)): 185 nm | ε ([2]; ACN only): 32612 M⁻¹ cm⁻¹ | ε ([2]; ACN:PBS (50:50 v/v)): 31088 M⁻¹ cm⁻¹ | Q.Y. ([3]; ACN only): 0.56% | Q.Y. ([3]; ACN:PBS (50:50 v/v)): 0.21% | Abs. λabs ([4]; ACN only): 340 nm | Abs. λabs ([4]; ACN:PBS (50:50 v/v)): 345 nm
